From ChEMBL document CHEMBL5523744, “Recent Advances in Targeted Cancer Therapy: Are PDCs the Next Generation of ADCs?” (J Med Chem, 2024)

Test system: DNA
Assay: Induction of DNA (unknown origin) minor groove alkylation
Assay type: nucleic-acid assay, Homo sapiens

Q: Which IC50 does the source give for `CC(C)(C)OC(=O)Nc1ccc(C(=O)Nc2ccc3cc(C(=O)N4C[C@@H](CCl)c5c4cc(O)c4ccccc54)[nH]c3c2)cc1` here?
A: Its IC50 is 0.04 nM.
